# Test results reported in patent publication US4716225A, “Radioopaque sugar derivatives and a method of metabolic mapping using the same” (priority 1985, dated 1987).
# Entries after “also recorded” stand apart in the source; their conditions may differ. Like-named read-outs stand apart in the source and are kept apart here.
# How the values were obtained:
# [1] = tested on: blood/brain barrier saturable carrier of glucose; settings: cited from earlier work
# [2] = tested on: brain; settings: 0.5 mg FDG injection, cited from earlier work
# [3] = tested on: brain; experiment: Feasibility calculation of brain concentration of 6-iodo-D-galactose; parameters: species or system human
# Source text: It appears feasible to achieve such concentrations in, for example, brain tissue, by administering a sufficient amount of 6-iodo-D-galactose to obtain an initial blood concentration of about 10^-2 M in the patient.
# However, it is proposed to use 6-iodo-D-galactose or other such 2-, 5- or 6-substituted hexoses. […] But the uptake of galactose relative to 2-deoxyglucose is 31%. Therefore, it is estimated that the total brain concentration of 6-iodo-D-galactose is approximately 20%×0.31, or 6% of the initial blood concentration. When the initial blood concentration is 10^-2 M, final brain concentration would approximate 6×10^-4 M. To achieve this, it is necessary to inject approximately 15 grams of iodogalactose. [formula]
# An adult has a blood volume of approximately 4-5 L, so to achieve the desired concentration of 10^-2 M (moles per liter) of 6-iodo-galactosewhose formula weight is 290 g/mole will require:
# wt=(5 liter)(1 X10^-2 mole/liter)(290 g/mole)=14 g.
# Thus, the criterion of having a brain concentration within the range of 10^-4 to 10^-3 M is met. Although this concentration is the lower limit of detection, it should not deleteriously affect the clarity of the brain CAT scan. […]
# [4] = Gross toxicology after intravenous (tail vein) injection in mice and rats; format: in vivo
# Description: (§1) Gross Toxicology. In order to be economical with the product, the gross toxicology of 6-IG was first determined in mice and rats. Enough material was injected in a volume of 0.1 ml into the tail vein to raise the blood concentration to 10^-3, 10^-2, and 10^-1 M, (0.02-2.11 g/kg). As an osmotic control, equimolar amounts of α-D-galactopyranose were injected into age matched animals.
# 6-IG was injected intravenously into 20 g male mice and equivalent amounts of α-D-galactopyranose were injected into age-matched controls. […] Three days post-injection, the animals were killed by ether inhalation and autopsied.
# [5] = tested on: brain; experiment: CAT scanning of dog brain after injection of contrast medium; format: in vivo
# Description: (§2) Mongrel dogs (40-50 lbs) were injected intravenously with a bolus of α-D-galactose sufficient to raise the blood concentration to a level of 10^-2 M. They were then required to walk from the animal facility to the CAT scanner, approximately 10 minutes, where they were anesthetized. Anesthesia was induced with thiamytal (lmg/kg) and the animal was intubated with a cuffed endotrachial tube. Following induction, anesthesia was maintained with a gaseous mixture of Halothane, nitrous oxide and oxygen.
# (§3) The time elapsed from injection to the start of the scan was approximately 1 hour. CAT scanning data were recorded on tape and served as a background control. Upon completion of scanning, the dog was recovered from anesthesia and returned to the animal facility, where routine care was resumed.
# (§4) This procedure was repeated one day later; however, 6-IG was injected to an initial blood concentration of 10^-2 M. Nine days and 33 days following the injection, repeat scans were performed to ensure that the contrast medium had cleared.
# The dog's brains were scanned by CAT in sequential slices in 3 mm. increments. […] The arrow indicates the regions where contrast was observed.
# [6] = Observation of side effects after injection into mice, rats, and dogs; format: in vivo; settings: in the concentrations described
# Description: This is the region associated with limb and tail movement in the dog. […] Thus, the accumulation can be made to be selective.
# as §1, §2
# [7] = Observation of side effects after intravenous injection in dogs; format: in vivo, Mongrel dogs
# Description: as §2, §3, §4
compound,measurement,setting,value
OC[C@H]1OC(O)C[C@@H](O)[C@@H]1O (stereo partly drawn) [2-deoxyglucose],crossing of blood/brain barrier,[1],cross the blood/brain barrier by the same saturable carrier as glucose
Fluorodeoxyglucose [FDG],brain concentration of FDG,[2]; after 40 minutes accumulation time,25 ng/cc
same,brain concentration as percent of initial blood concentration,"[2]; human, 40 min",20%
same,concentration,"[2]; read-out: molar brain concentration of FDG, after 40 minutes, brain cell volume 1 L",0.138 µM
"O[C@@H]1[C@@H](O)[C@@H](O)O[C@H](CI)[C@@H]1O [6-IG, 6-iodo-6-deoxy-α-D-galactopyranose]",estimated total brain concentration as percent of initial blood concentration,[3]; calculated as 20%×0.31,~6%
same,concentration,"[3]; initial blood concentration 10^-2 M, read-out: estimated final brain concentration",~600 µM
same,immediate effects of injection on the animals,"[4]; 20 g male mice, i.v., max 2.11 g 6-IG/kg or equivalent amount of α-D-galactopyranose",no apparent immediate effects on the animals
same,gross findings at autopsy,"[4]; mice, three days post-injection, i.v., max 2.11 g 6-IG/kg",no gross findings
same,"contrast accumulation in the cortical area, posterior portion of frontal lobe","[5]; 1 hour post-injection, initial blood concentration 10^-2 M",accumulated in the cortical area of the posterior portion of the frontal lobe within one hour after injection; also recorded: beginning of accumulation as early as 1 hour post-injection
same,contrast in pareital region and other areas of the brain,[5]; 9 days post-injection (FIG. 3),"no contrast is seen in the pareital lobe intracellular section shown in FIG. 3, nor in any other areas of the brain that were scanned; also recorded: no contrast medium has accumulated in that section of the brain"
same,"contrast accumulation in the cortical area, posterior portion of frontal lobe","[5]; 9 days post-injection, initial blood concentration 10^-2 M",greater contrast is seen in the same region 9 days post-injection; also recorded: greater contrast in the same cortical regions
same,clearance of contrast medium,"[5]; 33 days post-injection, initial blood concentration 10^-2 M",cleared completely
same,accumulation and clearance compared to FDG (PET),[5]; compared to Fluorodeoxyglucose,relatively slower
same,time of peak concentration,"[5]; dog brain, between 1 hour and 9 days post-injection",some time inbetween
same,clearance of the compound,"[5]; dog brain, present at nine days post injection",relatively slow
same,distribution of accumulation in brain,[5]; general statement on accumulation in dog brain,accumulates in areas of the brain that are metabolically hyperactive in response to normal stimuli
same,distribution of accumulation after digitization,"[5]; slice of FIG. 2C, 9 days post-injection, background subtracted",generally greatest in the cortical region
same,obvious side effects,[6],do not produce any obvious side effects
same,apparent side effects,"[7]; dogs, i.v., initial blood concentration 10^-2 M",Neither the control nor the iodinated injection medium had any apparent side effects
"OC[C@H]1O[C@H](O)[C@H](O)[C@@H](O)[C@H]1O [α-D-galactopyranose, reference compound]",uptake relative to 2-deoxyglucose,[1],31%
same,crossing of blood/brain barrier,[1]; same saturable carrier as glucose,cross the blood/brain barrier by the same saturable carrier as glucose
same,gross findings at autopsy,"[4]; in vivo, iv",no gross findings
same,immediate effects of injection on the animals,"[4]; in vivo, iv",no apparent immediate effects on the animals
same,apparent side effects,"[7]; dog, in vivo, iv",Neither the control nor the iodinated injection medium had any apparent side effects
